The text below walks through data of patent US8598118B2, “Hepatocyte growth factor mimics as therapeutic agents” (Washington State University, priority 2011, dated 2013).

For assay [1], the system named is MDCK cells. The assay can be described thus: HGF-dependent MDCK cell proliferation (MTT). It is filed as cell-based, canine. The conditions noted are these: analog 10^−10M, 4 days. The method, then:
5000 MDCK cells were seeded into the wells of a 96 well plates in 10% FBS DMEM. To induce cellular quiescence, the cells were serum deprived for 24 h prior to initiating the treatments. Following serum starvation, 10 ng/ml HGF alone and with various concentrations of 6-AH analogs or PBS vehicle were added to the media. The cells were allowed to grow under these conditions for 4 days with a daily addition of 6-AH analogs. On the fourth day, 1 mg/ml of […] (MTT, Sigma-Aldrich) prepared in PBS was added to the cells and incubated for 4 h. Dimethyl sulfoxide diluted in a 0.01M glycine buffer was added to solubilize the cell membranes and the absorbance of reduced MTT in the buffer was quantitated at 590 nm using a plate reader (Biotek Synergy 2, Winooski, Vt.). HGF-dependent proliferation was determined by subtracting the basal proliferation (in the absence of HGF) from total proliferation rates in groups containing HGF.

Assay [2] concerns MDCK cells. The assay can be described thus: Inhibition of HGF-dependent scattering in MDCK cells. It is filed as cell-based, canine. The note with it: for inhibition of HGF-dependent MDCK cell scattering: 20 ng/ml HGF, 48 h. The method, then:
(§1) MDCK cells were grown to 100% confluency on the coverslips in six-well plates and washed twice with PBS. The confluent coverslips were then aseptically transferred to new six well plates containing 900 μl serum free DMEM. Norleual, Hinge peptide, and/or HGF (20 ng/ml) were added to appropriate wells. Control wells received PBS vehicle. Plates were incubated at 37° C. with 5% CO2 for 48 hours. Media was removed and cells were fixed with methanol. Cells were stained with Diff-Quik Wright-Giemsa (Dade-Behring, Newark, Del.) and digital images were taken. Coverslips were removed with forceps and more digital images were captured. Pixel quantification of images was achieved using Image J and statistics were performed using Prism 5 and InStat v.3.05.
as §1, with “h.” for “hours.”, “v.3.05 (GraphPad; San Diego, Calif.).” for “v.3.05.”

The test system of another assay is Met. The assay is described as follows: Inhibition of HGF-dependent Met phosphorylation in HEK293 cells. The note with it: 10 min. It is filed as cell-based, human. The method, then:
HEK293 cells were seeded in 6 well tissue culture plates and grown to 95% confluency in DMEM containing 10% FBS. The cells were serum deprived for 24 h prior to the treatment to reduce the basal levels of phospho-Met. Following serum starvation, cocktails comprised of vehicle and HGF with/without 6-AH analogs were prepared and pre-incubated for 30 min at room temperature. The cocktail was then added to the cells for 10 min to stimulate the Met receptor and downstream proteins. Cells were harvested using RIPA lysis buffer (Millipore; Billerica, Mass.) fortified with phosphatase inhibitor cocktails 1 and 2 (Sigma-Aldrich; St. Louis, Mo.). The lysate was clarified by centrifugation at 15,000 nx g for 15 min, protein concentrations were determined using the BCA total protein assay (Pierce), and then appropriate volumes of the lysates were diluted with 2× reducing Laemmli buffer and heated for ten min at 95° C. Samples containing identical amounts of protein were resolved using SDS-PAGE (Criterion, BioRad Laboratories), transferred to nitrocellulose, and blocked in Tris-buffered saline (TBS) containing 5% milk for 1 h at room temperature. The phospho-Met antibody were added to the blocking buffer at a final concentration of 1:1000 and incubated at 4° C. overnight with gentle agitation. The membranes were then washed several times with water and TBS ([…], 0.05% Tween-20), a 1:5000 dilution of horseradish-peroxidase conjugated goat anti-rabbit antiserum was added, and the membranes further incubated for 1 h at room temperature. Proteins were visualized using the Supersignal West Pico Chemiluminescent Substrate system (Pierce, Fenton, Mo.) and molecular weights determined by comparison to protein ladders (BenchMark, Invitrogen, and Kaleidoscope, BioRad). Film images were digitized and analyzed using a UVP phosphoimager.

The target of a further assay is T1, c-Met receptor (Rattus norvegicus, UniProt P97523).
T1 construct: Dissociated hippocampal neurons were transfected with mRFP-β-actin and shMet RNA; endogenous in cells; host or cells: dissociated hippocampal neurons from P1-2 Sprague Dawley rats
The assay is described as follows: Effect of c-Met knock-down (shMet) on spinogenesis in hippocampal neurons. The note with it: neurons transfected with mRFP-β-actin alone; 10^−12 M, 48 hours. It is filed as cell-based. From the text:
(§2) Neurons were transfected with mRFP-β-actin on day in vitro 6 (DIV6) using LipofectAMINE™ 2000 (Invitrogen) according to the manufacturer's protocol. This protocol yielded the desired 3-5% transfection efficiency thus enabling the visualization of individual neurons. Higher efficiencies obscured the dendritic arbor of individual neurons. Expression of fluorescently tagged actin allowed clear visualization of dendritic spines, as dendritic spines are enriched in actin. On DIV7 the cells were treated with vehicle (H20) or peptides (as described in the text) added to media. On DIV 12 the neurons were fixed (4% paraformaldehyde, 3% sucrose, 60 mM PIPES, 25 mM HEPES, 5 mM EGTA, 1 mM MgCl2, pH 7.4) for 20 min at room temperature and mounted. Slides were dried for at least 20 hours at 4° C. and fluorescent images were obtained with Slidebook 4.2 Digital Microscopy Software driving an Olympus IX81 inverted confocal microscope with a 60× oil immersion lens, NA 1.4 and resolution 0.280 μm Dendritic spine density was measured on primary and secondary dendrites at a distance of at least 150 μm from the soma. Five 50 μm long segments of dendrite from at least 10 neurons per data point were analyzed for each data point reported. Each experiment was repeated at least three times using independent culture preparations. Dendrite length was determined using the National Institutes of Health's Image J 1.41o program (NIH, Bethesda, Md.) and the neurite tracing program Neuron J (Meijering, Jacob et al. 2004) Spines were manually counted.
A target sequence for c-Met was designed using RNAi central design program (see the website located at cancan.cshl.edu/). […]. The shRNA was transfected into cells using the lipofectamine method described above. Verification of receptor knockdown was done by creating a c-Met-6-Myc tagged gene product using the Gateway cloning system (Invitrogen). […]

Assay [3] has as its system hippocampal neurons. The assay can be described thus: Spinogenesis in mRFP-β-actin transfected dissociated hippocampal neurons. It is filed as cell-based, rat. On the procedure:
(§3) Hippocampal neurons (2×10^5 cells per square cm) were cultured from P1 Sprague Dawley rats on plates coated with poly-L-lysine from Sigma (St. Louis, Mo.; molecular weight 300,000). Hippocampal neurons were maintained in Neurobasal A media from Invitrogen (Carlsbad, Calif.) supplemented with B27 from Invitrogen, 0.5 mM L-glutamine, and […] cytosine-D-arabinofuranoside from Sigma added at 2 days in vitro. Hippocampal neurons were then cultured a further 3-7 days, at which time they were either transfected or treated with various pharmacological reagents as described in (Wayman, Davare et al. 2008).
as §2
as §3, with “centimeter)” for “cm)”, “P1-2” for “P1”, “the text or figure legends.” for “(Wayman, Davare et al. 2008).”

Assay [4] relates to hippocampal neurons. The assay is described as follows: Whole-cell recordings of AMPA-mediated mEPSCs. It is filed as cell-based, rat.
The test system of another assay is CA1 hippocampal neurons. The assay can be described thus: Spinogenesis in organotypic hippocampal slice cultures. It is filed as cell-based, rat. The conditions noted are these: 10^−12 M, 2 days, organotypic slices. The method, then: (§4) Hippocampi from P4 Sprague Dawley rats were cultured as previously described (Wayman, Impey et al. 2006). Briefly, 400 μm slices were cultured on (Milipore, Billerica, Mass.) for 3 days after which they were biolistically transfected with tomato fluorescent protein (TFP) using a Helios Gen Gun (BioRad, Hercules, Calif.), according to the manufacturer's protocol, to visualize dendritic arbors. Following a 24 hour recovery period slices were stimulated with vehicle (H2O), 1 pM Nle1-AngIV or Dihexa for 2 days. Slices were fixed and mounted. Hippocampal CA1 neuronal processes were imaged and measured as described above.
as §4, with “Gene” for “Gen”, “with” for “with vehicle (H2O),”

The test system of the next assay is Male Sprague-Dawley rats. The assay can be described thus: Morris water maze with the HGF antagonist Hinge (Example 2).

Structures can show the parent of a compound that is named as a salt. Where a SMILES comes first, the peptide text is derived from it. [ ]: non-standard residue; d: D form. dNle = CCCC[C@@H](N)C(=O)O; Nle = CCCC[C@H](N)C(=O)O; Ahx = NCCCCCC(=O)O

T1 sequence (P17945 33-495 partner limits assumed): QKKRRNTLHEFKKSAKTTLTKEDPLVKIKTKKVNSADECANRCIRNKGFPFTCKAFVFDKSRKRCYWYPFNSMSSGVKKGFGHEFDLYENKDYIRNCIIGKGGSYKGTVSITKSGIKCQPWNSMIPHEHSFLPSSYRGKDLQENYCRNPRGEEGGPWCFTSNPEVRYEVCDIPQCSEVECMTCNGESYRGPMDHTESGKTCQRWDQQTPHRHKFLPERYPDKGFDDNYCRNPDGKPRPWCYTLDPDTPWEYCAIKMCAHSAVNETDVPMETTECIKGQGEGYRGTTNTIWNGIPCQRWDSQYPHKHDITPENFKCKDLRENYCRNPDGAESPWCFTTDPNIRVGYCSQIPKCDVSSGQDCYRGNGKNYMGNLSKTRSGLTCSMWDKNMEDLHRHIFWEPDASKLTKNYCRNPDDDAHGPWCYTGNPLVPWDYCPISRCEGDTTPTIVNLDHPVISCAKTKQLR
T1 sequence (P17945 496-728 partner limits assumed): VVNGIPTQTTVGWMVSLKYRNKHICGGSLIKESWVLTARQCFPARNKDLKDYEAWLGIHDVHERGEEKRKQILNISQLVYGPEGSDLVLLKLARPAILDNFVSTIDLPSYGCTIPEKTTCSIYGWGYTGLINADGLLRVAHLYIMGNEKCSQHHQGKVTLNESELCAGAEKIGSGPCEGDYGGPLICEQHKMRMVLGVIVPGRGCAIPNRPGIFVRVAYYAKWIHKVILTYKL
T1 sequence (P97523 25-1382): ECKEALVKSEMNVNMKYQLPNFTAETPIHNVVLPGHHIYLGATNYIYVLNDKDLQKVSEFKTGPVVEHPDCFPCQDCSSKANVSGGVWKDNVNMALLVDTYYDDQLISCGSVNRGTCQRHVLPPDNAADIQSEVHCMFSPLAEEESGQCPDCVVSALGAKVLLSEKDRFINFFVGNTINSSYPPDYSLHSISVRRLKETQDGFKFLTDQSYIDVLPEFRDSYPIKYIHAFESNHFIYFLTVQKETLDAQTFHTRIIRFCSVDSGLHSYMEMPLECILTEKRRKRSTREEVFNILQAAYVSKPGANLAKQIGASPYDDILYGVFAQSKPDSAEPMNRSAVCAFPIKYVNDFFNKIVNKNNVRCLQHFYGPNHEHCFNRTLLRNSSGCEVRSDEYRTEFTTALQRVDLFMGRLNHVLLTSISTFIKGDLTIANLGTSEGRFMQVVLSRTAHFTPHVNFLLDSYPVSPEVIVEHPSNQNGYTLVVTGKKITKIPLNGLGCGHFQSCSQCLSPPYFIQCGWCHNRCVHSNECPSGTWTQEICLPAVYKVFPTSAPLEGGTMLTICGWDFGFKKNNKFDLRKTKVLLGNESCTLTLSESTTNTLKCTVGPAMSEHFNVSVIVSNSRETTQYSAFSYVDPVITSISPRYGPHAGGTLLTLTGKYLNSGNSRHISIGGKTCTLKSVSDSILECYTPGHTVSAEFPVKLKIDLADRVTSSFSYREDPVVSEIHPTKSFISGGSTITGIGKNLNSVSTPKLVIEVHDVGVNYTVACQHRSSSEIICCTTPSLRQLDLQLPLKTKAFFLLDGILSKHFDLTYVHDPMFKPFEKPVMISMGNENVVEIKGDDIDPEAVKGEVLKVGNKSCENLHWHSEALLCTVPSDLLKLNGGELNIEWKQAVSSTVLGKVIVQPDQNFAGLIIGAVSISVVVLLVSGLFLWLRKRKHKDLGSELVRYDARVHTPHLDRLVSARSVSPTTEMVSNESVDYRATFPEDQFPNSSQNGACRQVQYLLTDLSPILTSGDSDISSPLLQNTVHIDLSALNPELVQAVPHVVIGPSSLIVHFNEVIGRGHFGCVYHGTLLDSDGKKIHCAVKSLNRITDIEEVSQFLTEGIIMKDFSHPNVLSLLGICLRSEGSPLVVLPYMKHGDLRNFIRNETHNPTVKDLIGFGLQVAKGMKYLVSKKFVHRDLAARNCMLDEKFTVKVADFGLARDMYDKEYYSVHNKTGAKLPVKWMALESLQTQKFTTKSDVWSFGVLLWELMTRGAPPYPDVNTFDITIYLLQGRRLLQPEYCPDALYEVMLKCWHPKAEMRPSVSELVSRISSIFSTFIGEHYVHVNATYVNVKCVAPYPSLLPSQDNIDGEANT
Experimental for Male Sprague-Dawley rats: Male Sprague-Dawley rats (Taconic derived) weighing 390-450 g were maintained with free access to water and food (Harland Tekland F6 rodent diet, Madison, Wis.) except the night prior to surgery when food was removed. Each animal was anesthetized with Ketamine hydrochloride plus Xylazine (100 and 2 mg/kg im. respectively; Phoenix Scientific; St. Joseph, Mo., and Moby; Shawnee, Kans.). […] The guide cannula measured 2.5 cm in overall length and was prepared with a heat bulge placed 2.5 mm from its beveled tip, thus acting as a stop to control the depth of penetration. Once in position, the cannula was secured to the skull with two stainless-steel screws and dental cement. […]
A black circular platform (diameter: 12 cm; height: 24 cm) was placed 30 cm from the wall and submerged 2 cm below the water surface. […] The swimming path of the animals was recorded using a computerized video tracking system (Chromotrack; San Diego Instruments, CA). […] Swim speed was determined from these values. […]
Morris water maze data set mean latencies to find the platform during each daily block of five trials were calculated for each animal for each day of acquisition. […] Significant effects were analyzed by Newman-Keuls post-hoc test with a level of significance set at P<0.05.

On to `CCCC[C@@H](N)C(=O)N[C@@H](Cc1c[nH]c2ccccc12)C(=O)N[C@H](C(=O)NCCCCCC(N)=O)[C@@H](C)CC` [D-Nle-Trp-Ile-NH—(CH2)5—CONH2] (H-[dNle]WI[Ahx]-NH2), for which the “inhibition of HGF-dependent MDCK cell proliferation” value in the assay on MDCK cells [1] is reported as “inhibitory activity, albeit less than that observed with the most potent analogs”. Besides, the “inhibition of HGF-dependent MDCK cell scattering” value with MDCK cells [2] is listed as “different from the HGF alone group but not different from the control group”. Besides, the “inhibition of HGF-dependent Met auto-phosphorylation” value in the assay on Met is reported as “intermediate inhibitory activity”.
For the molecule `CCCC[C@@H](N)C(=O)N[C@@H](CCSC)C(=O)N[C@H](C(=O)NCCCCCC(N)=O)[C@@H](C)CC` [D-Nle-Met-Ile-NH—(CH2)5—CONH2] (H-[dNle]MI[Ahx]-NH2), the “inhibition of HGF-dependent MDCK cell scattering” value with MDCK cells [2] is “not different”. Further, the “inhibition of HGF-dependent Met auto-phosphorylation” value in the assay with Met is listed as “no ability to effect on Met activation”.
As for `CCCC[C@H](N)C(=O)N[C@@H](Cc1ccc(O)cc1)C(=O)N[C@H](C(=O)N[C@@H](Cc1c[nH]cn1)C(=O)N1CCC[C@H]1C(=O)N[C@@H](Cc1ccccc1)C(=O)O)[C@@H](C)CC` [Nle1-AngIV, reference compound] (H-[Nle]YIHPF-OH; N-terminus and C-terminus assumed), on c-Met receptor, the “mean spine numbers per 50 μm dendrite length” value is listed as 20.0. Moreover, the “fold increase in the number of spines” value with hippocampal neurons [3] (10^−12 M, 5 day treatment, vs vehicle) is “greater than 2 fold”. In the assay on hippocampal neurons [4] (10-12 M, 5 days), the “fold increase over control mEPSC frequency” value was found to be 1.7 fold. Moreover, the “mean frequency of AMPA-mediated mEPSCs” value in the assay with hippocampal neurons [4] (10-12 M, 5 days (Example 1)) turned out to be 5.27 Hz. In addition, the “spines per 50 μm dendrite length, CA1 neurons” value in the assay with CA1 hippocampal neurons is 11 spines per 50 μm dendrite length.
In the case of “DYIRNC (Synthetic hinge peptide) [novel HGF antagonist; peptide representing the dimerization domain (hinge region) of HGF, reference compound]”, the “mean latency to find the pedestal, final day of training (day 8)” value in the assay on Male Sprague-Dawley rats (aCSF followed by Hinge (no scopolamine), icv) is on record as 46.1 s. The “effect on basal spinogenesis” value with hippocampal neurons [3] (Hinge alone, wide range of doses) is “no effect on spinogenesis”. Besides, the “inhibition of stimulated spine formation” value with hippocampal neurons [3] (neurons stimulated with 10 ng/ml HGF, 10^−12 M Nle1-AngIV or 10^−12 M Dihexa) was “effectively inhibit spine formation”. Moreover, the “mean frequency of mEPSCs” value with hippocampal neurons [4] (10^−12 M, 5 days (Example 2)) worked out at 4.51±0.47. For the same molecule, the “inhibition of scattering of MDCK cells” value with MDCK cells [2] (Hinge) was “inhibit scattering”.
For the molecule `CN1[C@@H]2C[C@@H](OC(=O)[C@H](CO)c3ccccc3)C[C@H]1[C@@H]1O[C@@H]12` [scopolamine, scopolamine hydrobromide], in the assay with Male Sprague-Dawley rats (scopolamine icv pretreated rats, agents 300 pmol icv), the “mean latency to find the pedestal, final day of training (day 8)” value is reported as 84.8 s.
